Results on 24 compounds are retold here after ChEMBL document CHEMBL3046788, “Synthesis and antifungal activity of N-(substituted pyridinyl)-1-methyl(phenyl)-3-(trifluoromethyl)-1H-pyrazole-4-carboxamide derivatives” (Molecules, 2012).

Values after ≈ are worked out from the molar mass of the structure shown.

The subject of experiment [1] is Fusarium graminearum. The experiment is described as follows: microbe, parasite or virus in culture. Type of experiment: functional. Conditions: read-out: GI.
Experiment [2] has as its system Fusarium oxysporum. The experiment is described as follows: Antifungal activity against Fusarium oxysporum assessed as inhibition of mycelium growth at 100 ug/ml. It counts as functional. Conditions: read-out: GI.
For experiment [3], the system named is Cytospora. The experiment is described as follows: Antifungal activity against Cytospora mandshurica assessed as inhibition of mycelium growth at 100 ug/ml. Type of experiment: functional. Particulars: read-out: GI.
In experiment [4] the test system is Fusarium oxysporum. Put plainly: Antifungal activity against Fusarium oxysporum assessed as inhibition of mycelium growth. Type of experiment: functional, organism-based.
Experiment [5] concerns Cytospora. The experiment is described as follows: Antifungal activity against Cytospora mandshurica assessed as inhibition of mycelium growth. Type of experiment: functional, organism-based.
Experiment [6] concerns Fusarium graminearum. The experiment is described as follows: Antifungal activity against Fusarium graminearum assessed as inhibition of mycelium growth. It counts as functional, organism-based.

With `Cc1ccnc(NC(=O)c2cn(C)nc2C(F)(F)F)c1`, the inhibition of growth at 100 µg/mL with Fusarium graminearum [1] is 25.2%; with Fusarium oxysporum [2], 6.9%; with Cytospora [3], 1.74%.

Turning to `O=C(Nc1ccncc1Br)c1cn(-c2ccccc2)nc1C(F)(F)F`, the inhibition of growth at 100 µg/mL came to 22.6% in the experiment on Fusarium graminearum [1], 27.2% in the experiment on Fusarium oxysporum [2] and 8.4% with Cytospora [3].

Consider `Cn1cc(C(=O)Nc2ccnc(Br)c2)c(C(F)(F)F)n1`, for which the inhibition of growth at 100 µg/mL in the experiment on Fusarium graminearum [1] turned out to be 25.2%; in the experiment with Fusarium oxysporum [2], 10.9%; with Cytospora [3], 6.4%.

As for `O=C(Nc1ccccn1)c1cn(-c2ccccc2)nc1C(F)(F)F`, the inhibition of growth at 100 µg/mL in the experiment on Fusarium graminearum [1] turned out to be 35.2%; in the experiment with Fusarium oxysporum [2], 23.9%; in the experiment on Cytospora [3], 17%.

As to `Cc1cc(NC(=O)c2cn(-c3ccccc3)nc2C(F)(F)F)ccn1`, the results for the inhibition of growth at 100 µg/mL with Fusarium graminearum [1], in the experiment with Fusarium oxysporum [2] and in the experiment with Cytospora [3] were 9.8%, 4.23% and 0%, respectively.

As for `Cn1cc(C(=O)Nc2ccncc2)c(C(F)(F)F)n1`, the inhibition of growth at 100 µg/mL in the experiment on Fusarium graminearum [1] turned out to be 26.3%; in the experiment on Fusarium oxysporum [2], 11.8%; in the experiment on Cytospora [3] it was 2.9%.

In the case of `Cn1cc(C(=O)Nc2ccc(F)cn2)c(C(F)(F)F)n1`, the inhibition of growth at 100 µg/mL amounted to 30.4% in the experiment with Fusarium graminearum [1], 22.5% in the experiment on Fusarium oxysporum [2] and 13.6% in the experiment with Cytospora [3].

Turning to `O=C(Nc1ccccc1-c1ccc(Cl)cc1)c1cccnc1Cl` [BOSCALID], the inhibition of growth at 100 µg/mL is 35.9% in the experiment with Fusarium graminearum [1], 4.3% in the experiment with Fusarium oxysporum [2] and 3.4% with Cytospora [3].

In the case of `O=C(Nc1ccnc(Cl)c1)c1cn(-c2ccccc2)nc1C(F)(F)F`, the values for the inhibition of growth at 100 µg/mL with Fusarium graminearum [1], with Fusarium oxysporum [2] and with Cytospora [3] were 16.2%, 0% and 0%, respectively.

As for `Cn1cc(C(=O)Nc2cccnc2Cl)c(C(F)(F)F)n1`, the inhibition of growth at 100 µg/mL in the experiment on Fusarium graminearum [1] came to 40.4%; in the experiment with Fusarium oxysporum [2], 14.9%; in the experiment with Cytospora [3] it was 4.9%.

One may read the EC50 as the concentration needed to bring the measured effect to its halfway point. As to `Cn1cc(C(=O)Nc2ccc(Br)cn2)c(C(F)(F)F)n1`, the EC50 with Fusarium oxysporum [4] was found to be 97.8 µg/mL (≈ 280 µM); in the experiment on Cytospora [5], 132 µg/mL (≈ 380 µM); in the experiment with Fusarium graminearum [6] it was 76.3 µg/mL (≈ 219 µM). Besides, the figures for the inhibition of growth at 100 µg/mL with Fusarium graminearum [1], in the experiment with Fusarium oxysporum [2] and with Cytospora [3] were 73.2%, 53.5% and 48.7%, respectively.

In the case of `Cn1cc(C(=O)Nc2ccc(C(F)(F)F)cn2)c(C(F)(F)F)n1`, the values for the inhibition of growth at 100 µg/mL with Fusarium graminearum [1], with Fusarium oxysporum [2] and with Cytospora [3] were 51.6%, 39.1% and 35.6%, respectively.

Take `Cc1ccc(NC(=O)c2cn(C)nc2C(F)(F)F)nc1`: the figures for the inhibition of growth at 100 µg/mL in the experiment on Fusarium graminearum [1], in the experiment with Fusarium oxysporum [2] and with Cytospora [3] were 39.3%, 8.3% and 0%, respectively.

As for `Cn1cc(C(=O)Nc2ccccn2)c(C(F)(F)F)n1`, the inhibition of growth at 100 µg/mL worked out at 40.9% in the experiment on Fusarium graminearum [1], 19.5% in the experiment on Fusarium oxysporum [2] and 9% in the experiment on Cytospora [3].

As to `Cc1cnccc1NC(=O)c1cn(-c2ccccc2)nc1C(F)(F)F`, the inhibition of growth at 100 µg/mL was 6.7% with Fusarium graminearum [1], 11.5% with Fusarium oxysporum [2] and 6.1% in the experiment on Cytospora [3].

On to `O=C(Nc1ccc(Cl)cn1)c1cn(-c2ccccc2)nc1C(F)(F)F`, for which the inhibition of growth at 100 µg/mL in the experiment on Fusarium graminearum [1] was 16.5%; in the experiment with Fusarium oxysporum [2], 14.2%; with Cytospora [3], 10.1%.

On to `O=C(Nc1ccncc1)c1cn(-c2ccccc2)nc1C(F)(F)F`, for which the inhibition of growth at 100 µg/mL in the experiment on Fusarium graminearum [1] turned out to be 11.3%; in the experiment on Fusarium oxysporum [2], 7.9%; in the experiment on Cytospora [3] it was 0%.

In the case of `CC1=C(C(=O)Nc2ccccc2)SCCO1` [CARBOXIN], the inhibition of growth at 100 µg/mL in the experiment on Fusarium graminearum [1] is 56.3%; in the experiment with Fusarium oxysporum [2], 23.6%.

As to `O=C(Nc1ccnc(Br)c1)c1cn(-c2ccccc2)nc1C(F)(F)F`, the inhibition of growth at 100 µg/mL in the experiment on Fusarium graminearum [1] amounted to 10.7%; with Fusarium oxysporum [2], 5.7%; in the experiment on Cytospora [3], 0%.

For `O=C(Nc1cccnc1)c1cn(-c2ccccc2)nc1C(F)(F)F`, the inhibition of growth at 100 µg/mL in the experiment with Fusarium graminearum [1] was 6.1%; in the experiment on Fusarium oxysporum [2], 10.6%; in the experiment with Cytospora [3] it was 0%.

Consider `Cn1cc(C(=O)Nc2ccc(Cl)cn2)c(C(F)(F)F)n1`, for which the inhibition of growth at 100 µg/mL amounted to 26% in the experiment with Fusarium graminearum [1], 30.1% in the experiment on Fusarium oxysporum [2] and 13.6% in the experiment with Cytospora [3].

As for `Cn1cc(C(=O)Nc2ccnc(Cl)c2)c(C(F)(F)F)n1`, the inhibition of growth at 100 µg/mL in the experiment on Fusarium graminearum [1] amounted to 60.1%; with Fusarium oxysporum [2] it was 5.9%; in the experiment on Cytospora [3], 9.1%.

Regarding `Cc1cccc(NC(=O)c2cn(C)nc2C(F)(F)F)n1`, the inhibition of growth at 100 µg/mL is 34.7% in the experiment with Fusarium graminearum [1], 22.3% with Fusarium oxysporum [2] and 20.8% with Cytospora [3].

Take `Cc1ccc(NC(=O)c2cn(-c3ccccc3)nc2C(F)(F)F)nc1`: the inhibition of growth at 100 µg/mL stood at 6.4% with Fusarium graminearum [1], 20.5% in the experiment with Fusarium oxysporum [2] and 0% in the experiment with Cytospora [3].
